From patent US9675592B2, “Methods and compositions for bacteria infections” (priority 2013, dated 2017)

Experiments:
[1] = tested on: vraSR promoter (Pvra-lux reporter in strain 923); assay: Primary screen, relative luminescence (vraSR expression); conditions: primary screen, compound 10 μM with oxacillin 2 μg/mL; <0.50 = vraSR repressed = hit
[2] = tested on: test strain 923 pPvra-lux (USA300 MRSA); assay: Primary screen, relative growth in presence of oxacillin; conditions: compound 10 μM with oxacillin 2 μg/mL, absorbance 24 h, <0.50 = dead cells = hit

| SMILES | RL avg (relative luminescence) [1] | RG avg (relative growth) [2] |
| --- | --- | --- |
| O=C(Nc1nnc(C2=COCCO2)o1)c1cc(Cl)cc(Cl)c1 [F0608-258] | −0.06 | −0.05 |
| O=C(Nc1nnc(-c2ccc(Cl)s2)o1)c1ccc(-c2ccccc2)cc1 [F1374-1060] | 0.46 | 0.17 |
| COc1cc(OC)cc(C(=O)Nc2nnc(-c3ccc(Br)cc3)o2)c1 [F2518-451] | −0.10 | −0.01 |
| O=C(Nc1nnc(-c2cccnc2)o1)c1cc(Cl)cc(Cl)c1 [F0608-1062] | −0.10 | −0.04 |
| CCOc1ccc(-c2nnc(NC(=O)c3c(-c4ccccc4Cl)noc3C)o2)cc1 [F2517-329] | −0.11 | −0.02 |
| COC(=O)c1ccc(C(=O)Nc2nnc(-c3ccccc3Cl)o2)cc1 [F1374-55] | 0.47 | 0.28 |
| O=C(Nc1nnc(-c2ccc(Cl)s2)o1)c1cc(-c2ccccc2)nc2ccccc12 [F1374-1094] | 0.52 | 0.03 |
| O=C(Nc1nnc(-c2ccc(Cl)s2)o1)c1ccc(Cl)cc1 [F1374-1055] | 0.50 | 0.02 |
| O=C(Nc1nnc(-c2ccc(Cl)s2)o1)c1ccc2ncsc2c1 [F1374-1151] | 0.35 | −0.02 |
| CC1CC(C)CN(S(=O)(=O)c2ccc(C(=O)Nc3nnc(-c4ccc(Cl)s4)o3)cc2)C1 (centres unmarked) [F0559-376] | −0.02 | −0.08 |
| CC1CC(C)CN(S(=O)(=O)c2ccc(C(=O)Nc3nnc(-c4ccc(F)cc4)o3)cc2)C1 (centres unmarked) [F0559-106] | −0.07 | −0.07 |
| O=C(COc1ccc(Cl)cc1)Nc1nnc(-c2ccc3c(c2)CCCC3)o1 [F0608-664] | −0.01 | −0.04 |
| O=C(Nc1nnc(-c2ccccn2)o1)c1c(F)cccc1F [F0608-895] | −0.06 | 0.03 |
| O=C(Nc1nnc(-c2ccc(Br)cc2)o1)c1cc(Cl)sc1Cl [F2518-504] | 0.00 | 0.01 |
| O=C(Nc1nnc(-c2ccccc2Cl)o1)c1sc2ccccc2c1Cl [F1374-43] | 0.35 | 0.04 |
| O=C(Nc1nnc(-c2cc(Cl)ccc2Cl)o1)c1nc2ccccc2s1 [F2518-39] | −0.07 | −0.01 |
| COc1cc(-c2nnc(NC(=O)c3cccc(Cl)c3)o2)cc(OC)c1OC [F2517-7] | −0.11 | −0.03 |
| Cc1ccc(C)c(-c2nnc(NC(=O)c3cccc(Br)c3)o2)c1 [F2518-303] | −0.02 | 0.00 |
| Cc1ccc(Cc2nnc(NC(=O)c3ccc(S(=O)(=O)N(C)c4ccccc4)cc3)o2)c(C)c1 [F2368-431] | −0.06 | −0.02 |
| O=C(Nc1nnc(-c2cc(Cl)ccc2Cl)o1)c1ccccc1 [F2518-2] | 0.01 | −0.02 |
| Cc1ccc(C)c(-c2nnc(NC(=O)c3cc(Cl)sc3Cl)o2)c1 [F2518-360] | 0.13 | 0.04 |

| SMILES | RL avg (relative luminescence) [1] | RG avg (relative growth) [2] |
| --- | --- | --- |
| O=C(Nc1nnc(-c2cc(Cl)ccc2Cl)o1)c1ccc2c(c1)CCCC2 [F2518-85] | −0.05 | 0.00 |
| O=C(Nc1nnc(-c2ccc(Br)cc2)o1)c1ccc(Oc2ccccc2)cc1 [F2518-534] | 0.04 | 0.01 |
| CC(C)c1ccc(Cc2nnc(NC(=O)c3ccc4ncsc4c3)o2)cc1 [F2368-1143] | −0.09 | −0.01 |
| CSc1ccc(-c2nnc(NC(=O)c3ccc4c(c3)CCCC4)o2)cc1 [F2645-379] | 0.37 | 0.04 |
| Cc1ccc(C)c(-c2nnc(NC(=O)c3ccc4c(c3)CCCC4)o2)c1 [F2518-373] | −0.05 | 0.05 |
| CSc1ccc(-c2nnc(NC(=O)c3ccc(S(=O)(=O)N(C)Cc4ccccc4)cc3)o2)cc1 [F2645-405] | 0.57 | 0.29 |
| O=C(Nc1nnc(-c2ccc3c(c2)CCCC3)o1)c1cc(Cl)sc1Cl [F0608-668] | −0.06 | 0.02 |
| O=C(Nc1nnc(-c2ccc3c(c2)CCCC3)o1)c1nc2ccccc2s1 [F0608-570] | −0.07 | −0.05 |
| Cc1ccc(NCC(O)Cn2c3ccc(Br)cc3c3cc(Br)ccc32)cc1 (centres unmarked) [F0191-4604] | −0.06 | −0.07 |
| Cc1ccc(C)c(-c2nnc(NC(=O)c3cccc(F)c3)o2)c1 [F2518-301] | −0.10 | −0.01 |
| COc1cccc(C(=O)Nc2nnc(-c3ccc(C)c(C)c3)o2)c1 [F2767-17] | −0.15 | 0.00 |
| COc1cc(OC)cc(-c2nnc(NC(=O)c3ccc(Cl)s3)o2)c1 [F1374-666] | 0.34 | 0.05 |
| O=C(Nc1nnc(-c2cc(Cl)sc2Cl)o1)c1ccc(F)cc1F [F1374-2707] | 0.32 | 0.00 |
| COc1ccccc1-c1nnc(NC(=O)c2cc(-c3ccccc3)nc3ccccc23)o1 [F1374-254] | 0.36 | 0.06 |
| O=C(Nc1nnc(-c2ccc(Br)cc2)o1)c1sc2ccccc2c1Cl [F2518-484] | 0.02 | 0.02 |
| O=C(Nc1nnc(-c2cc(Cl)ccc2Cl)o1)c1ccc(Br)s1 [F2518-41] | −0.03 | 0.00 |
| COc1ccc(-c2nnc(NC(=O)c3ccc(C(C)(C)C)cc3)o2)cc1 [F1374-495] | 0.37 | 0.04 |
| O=C(Nc1nnc(-c2ccc(Br)cc2)o1)c1cc(Cl)ccc1Cl [F2518-481] | −0.05 | 0.00 |
| O=C(Nc1nnc(-c2ccco2)o1)c1cc(-c2ccccc2)nc2ccccc12 [F0608-448] | −0.04 | 0.19 |
| O=C(Nc1nnc(C2COc3ccccc3O2)o1)c1ccc(S(=O)(=O)N2CCCc3ccccc32)cc1 (centres unmarked) [F0608-715] | −0.05 | −0.01 |
| O=C(Nc1nnc(-c2ccc3c(c2)OCCO3)o1)c1ccc(C(=O)c2ccccc2)cc1 [F0608-19] | −0.12 | −0.02 |

| SMILES | RL avg (relative luminescence) [1] | RG avg (relative growth) [2] |
| --- | --- | --- |
| Cc1ccc(-c2nnc(NC(=O)c3cccc(C(F)(F)F)c3)o2)c(C)c1 [F2518-189] | −0.02 | 0.01 |
| Cc1ccc(C)c(-c2nnc(NC(=O)c3ccc4ncsc4c3)o2)c1 [F2518-414] | −0.02 | 0.01 |
| O=C(Nc1nnc(-c2ccco2)o1)c1ccc(Oc2ccccc2)cc1 [F0608-491] | −0.11 | −0.06 |
| Cc1ccc(-c2nnc(NC(=O)c3ccc(S(=O)(=O)N4CCCCC4)cc3)o2)cc1C [F2767-26] | −0.05 | 0.03 |
| O=C(Nc1nnc(-c2ccc(Cl)s2)o1)c1nc2ccccc2s1 [F1374-1083] | 0.49 | 0.02 |
| O=C(Nc1nnc(-c2ccccn2)o1)c1cc(Cl)cc(Cl)c1 [F0608-928] | 0.07 | −0.01 |
| COc1cccc(-c2nnc(NC(=O)C(c3ccccc3)c3ccccc3)o2)c1 [F1374-379] | 0.34 | 0.47 |
| COc1cc(-c2nnc(NC(=O)c3ccc(S(=O)(=O)N4CCCc5ccccc54)cc3)o2)cc(OC)c1OC [F0559-320] | −0.08 | 0.24 |
| O=C(Nc1nnc(-c2cc(Cl)sc2Cl)o1)c1cccc(C(F)(F)F)c1 [F1374-2671] | 0.35 | 0.03 |
| COc1cc(-c2nnc(NC(=O)c3cccc(Br)c3)o2)cc(OC)c1OC [F2517-14] | −0.07 | −0.03 |
| O=C(Nc1nnc(-c2ccc(F)cc2)o1)c1ccc(Oc2ccccc2)cc1 [F1374-188] | 0.33 | 0.02 |
| O=C(Nc1nnc(-c2ccc(Br)s2)o1)c1cc(Cl)ccc1Cl [F5093-46] | −0.07 | −0.01 |
| COc1cc(-c2nnc(NC(=O)c3cccc(C(F)(F)F)c3)o2)cc(OC)c1OC [F2517-37] | −0.06 | −0.02 |
| Cc1ccc(-c2nnc(NC(=O)c3ccc(Cl)cc3Cl)o2)c(C)c1 [F2518-166] | −0.10 | −0.02 |
| COc1ccccc1-c1nnc(NC(=O)c2ccc(S(=O)(=O)N(Cc3ccccc3)C(C)C)cc2)o1 [F0559-148] | −0.04 | 0.02 |
| O=C(Nc1nnc(-c2ccc3c(c2)CCCC3)o1)c1ccc2c(c1)OCCO2 [F0608-601] | −0.12 | −0.05 |
| C=CCN(CC=C)S(=O)(=O)c1ccc(C(=O)Nc2nnc(-c3ccc(OC)cc3)o2)cc1 [F0559-189] | −0.08 | −0.05 |
| O=C(Nc1nnc(-c2ccc(Br)cc2)o1)c1cccc(Br)c1 [F2518-447] | 0.00 | 0.02 |
| O=C(Nc1nnc(-c2ccc3c(c2)CCCC3)o1)c1cccc(C(F)(F)F)c1 [F0608-575] | −0.09 | −0.02 |
